Results reported in BindingDB's records for patent US20240335427 (Dana-Farber Cancer Institute, 2024).

Molecular target: Josephin-1 (Homo sapiens, UniProt Q15040)
Source text: Human JOSD1 protein was purified according to standard protocols.

With `N#CN1CC[C@@H](C(=O)Nc2nc3ccc(-c4ccc5[nH]ncc5c4)cc3s2)C1` [US20240335427, Compound 7] the IC50 was 95 nM.
